Source: patent US8574563B2 (Bristol-Myers Squibb Company, priority 2006, dated 2013)

Test system: HCV 1b-377-neo replicon cells
Assay: HCV replicon assay, HCV 1b-377-neo replicon cells (1b FRET)
Format: cell-based, Hepatitis C virus genotype 1b
Conditions: Hepatitis C virus, HCV 1b-377-neo replicon cells; HCV 1b genotype; read-out: EC50 range against HCV 1b (Table 2, Range)
In short: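 Compounds were tested in genotype 1b subgenomic replicon cells carrying a neomycin marker, alongside a matched replicon line with an NS5A Y2065H substitution that confers resistance to a reference NS5A inhibitor.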

Structure (SMILES)	EC50
CCNC(=O)NCc1ccc(C[C@H](NC(=O)OC)C(=O)N2CCC[C@H]2c2ncc(-c3ccc(-c4ccc(-c5cnc([C@@H]6CCCN6C(=O)[C@@H](NC(=O)OC)C(C)C)[nH]5)cc4)cc3)[nH]2)cc1 [cj-115, methyl ((1S)-1-(4-(((ethylcarbamoyl)amino)methyl)benzyl)-2-((2S)-2-(5-(4′-(2-((2S)-1-((2S)-2-((methoxycarbonyl)amino)-3-methylbutanoyl)-2-pyrrolidinyl)-1H-imidazol-5-yl)-4-biphenylyl)-1H-imidazol-2-yl)-1-pyrrolidinyl)-2-oxoethyl)carbamate]	0.001 to 0.999 nM
CCN(CC)[C@@H](C(=O)N1CCC[C@H]1c1ncc(-c2ccc(-c3ccc(-c4cnc([C@@H]5CCCN5C(=O)[C@H]5CCC[C@@H]5NC(=O)OC)[nH]4)cc3)cc2)[nH]1)c1ccccc1 [cj-116, methyl ((1S,2S)-2-(((2S)-2-(5-(4′-(2-((2S)-1-((2R)-2-(diethylamino)-2-phenylacetyl)-2-pyrrolidinyl)-1H-imidazol-5-yl)-4-biphenylyl)-1H-imidazol-2-yl)-1-pyrrolidinyl)carbonyl)cyclopentyl)carbamate]	0.001 to 0.999 nM
COC(=O)N[C@H]1CCC[C@@H]1C(=O)N1CCC[C@H]1c1ncc(-c2ccc(-c3ccc(-c4cnc([C@@H]5CCCN5C(=O)[C@H](NC(=O)OC)c5ccccc5)[nH]4)cc3)cc2)[nH]1 [cj-117, methyl ((1R)-2-((2S)-2-(5-(4′-(2-((2S)-1-(((1S,2S)-2-((methoxycarbonyl)amino)cyclopentyl)carbonyl)-2-pyrrolidinyl)-1H-imidazol-5-yl)-4-biphenylyl)-1H-imidazol-2-yl)-1-pyrrolidinyl)-2-oxo-1-phenylethyl)carbamate]	0.001 to 0.999 nM
COC(=O)N[C@@H](C)C(=O)N1CCC[C@H]1c1ncc(-c2ccc(-c3ccc(-c4cnc([C@@H]5CCCN5C(=O)[C@H]5CCC[C@@H]5NC(=O)OC)[nH]4)cc3)cc2)[nH]1 [cj-118, methyl ((1S,2S)-2-(((2S)-2-(5-(4′-(2-((2S)-1-(N-(methoxycarbonyl)-L-alanyl)-2-pyrrolidinyl)-1H-imidazol-5-yl)-4-biphenylyl)-1H-imidazol-2-yl)-1-pyrrolidinyl)carbonyl)cyclopentyl)carbamate]	0.001 to 0.999 nM
COCC[C@H](NC(=O)OC)C(=O)N1CCC[C@H]1c1ncc(-c2ccc(-c3ccc(-c4cnc([C@@H]5CCCN5C(=O)[C@@H](NC(=O)OC)C(C)C)[nH]4)cc3)cc2)[nH]1 [cj-119, methyl ((1S)-1-(((2S)-2-(5-(4′-(2-((2S)-1-(N-(methoxycarbonyl)-O-methyl-L-homoseryl)-2-pyrrolidinyl)-1H-imidazol-5-yl)-4-biphenylyl)-1H-imidazol-2-yl)-1-pyrrolidinyl)carbonyl)-2-methylpropyl)carbamate]	0.001 to 0.999 nM
COCC[C@H](NC(=O)OC)C(=O)N1CCC[C@H]1c1ncc(-c2ccc(-c3ccc(-c4cnc([C@@H]5CCCN5C(=O)[C@H](C)NC(=O)OC)[nH]4)cc3)cc2)[nH]1 [cj-120, methyl ((1S)-3-methoxy-1-(((2S)-2-(5-(4′-(2-((2S)-1-(N-(methoxycarbonyl)-L-alanyl)-2-pyrrolidinyl)-1H-imidazol-5-yl)-4-biphenylyl)-1H-imidazol-2-yl)-1-pyrrolidinyl)carbonyl)propyl)carbamate]	0.001 to 0.999 nM
COCC[C@H](NC(=O)OC)C(=O)N1CCC[C@H]1c1ncc(-c2ccc(-c3ccc(-c4cnc([C@@H]5CCCN5C(=O)[C@@H](NC(=O)OC)[C@@H](C)OC)[nH]4)cc3)cc2)[nH]1 [cj-121, methyl ((1S,2R)-2-methoxy-1-(((2S)-2-(5-(4′-(2-((2S)-1-(N-(methoxycarbonyl)-O-methyl-L-homoseryl)-2-pyrrolidinyl)-1H-imidazol-5-yl)-4-biphenylyl)-1H-imidazol-2-yl)-1-pyrrolidinyl)carbonyl)propyl)carbamate]	0.001 to 0.999 nM
COCC[C@H](NC(=O)OC)C(=O)N1CCC[C@H]1c1ncc(-c2ccc(-c3ccc(-c4cnc([C@@H]5CCCN5C(=O)[C@H]5CCC[C@@H]5NC(=O)OC)[nH]4)cc3)cc2)[nH]1 [cj-122, methyl ((1S,2S)-2-(((2S)-2-(5-(4′-(2-((2S)-1-(N-(methoxycarbonyl)-O-methyl-L-homoseryl)-2-pyrrolidinyl)-1H-imidazol-5-yl)-4-biphenylyl)-1H-imidazol-2-yl)-1-pyrrolidinyl)carbonyl)cyclopentyl)carbamate]	0.001 to 0.999 nM
COC(=O)N[C@@H](Cc1c[nH]nn1)C(=O)N1CCC[C@H]1c1ncc(-c2ccc(-c3ccc(-c4cnc([C@@H]5CCCN5C(=O)[C@H](Cc5c[nH]nn5)NC(=O)OC)[nH]4)cc3)cc2)[nH]1 [cj-125, methyl ((1S)-2-((2S)-2-(5-(4′-(2-((2S)-1-((2S)-2-((methoxycarbonyl)amino)-3-(1H-1,2,3-triazol-4-yl)propanoyl)-2-pyrrolidinyl)-1H-imidazol-5-yl)-4-biphenylyl)-1H-imidazol-2-yl)-1-pyrrolidinyl)-2-oxo-1-(1H-1,2,3-triazol-4-ylmethyl)ethyl)carbamate]	1 to 99 nM
COC(=O)N[C@@H](C)CC(=O)N1CCC[C@H]1c1ncc(-c2ccc(-c3ccc(-c4cnc([C@@H]5CCCN5C(=O)C[C@H](C)NC(=O)OC)[nH]4)cc3)cc2)[nH]1 [cj-126, dimethyl (4,4′-biphenyldiylbis(1H-imidazole-5,2-diyl(2S)-2,1-pyrrolidinediyl((2S)-4-oxo-4,2-butanediyl)))biscarbamate]	0.001 to 0.999 nM
COC(=O)N[C@H](CC(=O)N1CCC[C@H]1c1ncc(-c2ccc(-c3ccc(-c4cnc([C@@H]5CCCN5C(=O)C[C@@H](NC(=O)OC)C(C)C)[nH]4)cc3)cc2)[nH]1)C(C)C [cj-127, dimethyl (4,4′-biphenyldiylbis(1H-imidazole-5,2-diyl(2S)-2,1-pyrrolidinediyl((3R)-4-methyl-1-oxo-1,3-pentanediyl)))biscarbamate]	1 to 99 nM
COC(=O)N[C@H](CC(=O)N1CCC[C@H]1c1ncc(-c2ccc(-c3ccc(-c4cnc([C@@H]5CCCN5C(=O)C[C@@H](NC(=O)OC)c5ccccc5)[nH]4)cc3)cc2)[nH]1)c1ccccc1 [cj-128, methyl ((1R)-3-((2S)-2-(5-(4′-(2-(1-((3R)-3-((methoxycarbonyl)amino)-3-phenylpropanoyl)-2-pyrrolidinyl)-1H-imidazol-5-yl)-4-biphenylyl)-1H-imidazol-2-yl)-1-pyrrolidinyl)-3-oxo-1-phenylpropyl)carbamate]	0.001 to 0.999 nM
COC(=O)N[C@@H](CC(=O)N1CCC[C@H]1c1ncc(-c2ccc(-c3ccc(-c4cnc([C@@H]5CCCN5C(=O)C[C@H](NC(=O)OC)c5ccccc5)[nH]4)cc3)cc2)[nH]1)c1ccccc1 [cj-129, methyl ((1S)-3-((2S)-2-(5-(4′-(2-(1-((3S)-3-((methoxycarbonyl)amino)-3-phenylpropanoyl)-2-pyrrolidinyl)-1H-imidazol-5-yl)-4-biphenylyl)-1H-imidazol-2-yl)-1-pyrrolidinyl)-3-oxo-1-phenylpropyl)carbamate]	0.001 to 0.999 nM
COC(=O)N[C@@H](Cc1ccccn1)C(=O)N1CCC[C@H]1c1ncc(-c2ccc(-c3ccc(-c4cnc([C@@H]5CCCN5C(=O)[C@H](Cc5ccccn5)NC(=O)OC)[nH]4)cc3)cc2)[nH]1 [cj-130, methyl ((1S)-2-((2S)-2-(5-(4′-(2-((2S)-1-((2S)-2-((methoxycarbonyl)amino)-3-(2-pyridinyl)propanoyl)-2-pyrrolidinyl)-1H-imidazol-5-yl)-4-biphenylyl)-1H-imidazol-2-yl)-1-pyrrolidinyl)-2-oxo-1-(2-pyridinylmethyl)ethyl)carbamate]	0.001 to 0.999 nM
COC(=O)N[C@@H](Cc1c[nH]cn1)C(=O)N1CCC[C@H]1c1ncc(-c2ccc(-c3ccc(-c4cnc([C@@H]5CCCN5C(=O)[C@H](Cc5c[nH]cn5)NC(=O)OC)[nH]4)cc3)cc2)[nH]1 [cj-131, methyl ((1S)-2-((2S)-2-(5-(4′-(2-((2S)-1-((2S)-3-(1H-imidazol-4-yl)-2-((methoxycarbonyl)amino)propanoyl)-2-pyrrolidinyl)-1H-imidazol-5-yl)-4-biphenylyl)-1H-imidazol-2-yl)-1-pyrrolidinyl)-1-(1H-imidazol-4-ylmethyl)-2-oxoethyl)carbamate]	1 to 99 nM
O=C1C[C@@H](C(=O)N2CCC[C@H]2c2ncc(-c3ccc(-c4ccc(-c5cnc([C@@H]6CCCN6C(=O)[C@@H]6CC(=O)NC(=O)N6)[nH]5)cc4)cc3)[nH]2)NC(=O)N1 [cj-132, (6S,6′S)-6,6′-(4,4′-biphenyldiylbis(1H-imidazole-5,2-diyl(2S)-2,1-pyrrolidinediylcarbonyl))didihydro-2,4(1H,3H)-pyrimidinedione]	100 to 999 nM
CC(=O)NCCC(=O)N1CCC[C@H]1c1ncc(-c2ccc(-c3ccc(-c4cnc([C@@H]5CCCN5C(=O)CCNC(C)=O)[nH]4)cc3)cc2)[nH]1 [cj-134, N-(3-((2S)-2-(5-(4′-(2-((2S)-1-(3-acetamidopropanoyl)-2-pyrrolidinyl)-1H-imidazol-5-yl)-4-biphenylyl)-1H-imidazol-2-yl)-1-pyrrolidinyl)-3-oxopropyl)acetamide]	1 to 99 nM
COC(=O)N[C@H](CCc1ccccc1)CC(=O)N1CCC[C@H]1c1ncc(-c2ccc(-c3ccc(-c4cnc([C@@H]5CCCN5C(=O)C[C@@H](CCc5ccccc5)NC(=O)OC)[nH]4)cc3)cc2)[nH]1 [cj-135, dimethyl (4,4′-biphenyldiylbis(1H-imidazole-5,2-diyl(2S)-2,1-pyrrolidinediyl((3R)-1-oxo-5-phenyl-1,3-pentanediyl)))biscarbamate]	1 to 99 nM
COC(=O)N[C@H](CC(=O)N1CCC[C@H]1c1ncc(-c2ccc(-c3ccc(-c4cnc([C@@H]5CCCN5C(=O)C[C@H](Cc5cccs5)NC(=O)OC)[nH]4)cc3)cc2)[nH]1)Cc1cccs1 [cj-136, dimethyl (4,4′-biphenyldiylbis(1H-imidazole-5,2-diyl(2S)-2,1-pyrrolidinediyl((2R)-4-oxo-1-(2-thienyl)-4,2-butanediyl)))biscarbamate]	0.001 to 0.999 nM
